# Measured values from US20030097221A1, “Detection and characterization of psychoactives using parallel multi-site assays in brain tissue” (priority 2001, published 2003).
# Several values for one entry are separate records, joined by “and”; a condition that tells them apart may be missing. Equal values may be shown once.
# Legend:
# Type in all cases: cell-based, rat
# [1] = system: hippocampal slice regions (CA1, DG, MF); assay: Comparison between regions of the slice, area under the curve for all 4 assays (FIG. 9); details: prediction drawn from the results of FIG. 9
# Experimental: All assays employ paired-pulse stimulation at various rat hippocampal sites to elicit evoked responses. The resulting field EPSP recordings were analyzed using Matlab software (The MathWorks, Inc.) by computing several response measures such as amplitude, halfwidth, and negative area, which apply to both the first and second evoked reponses. Amplitude was defined as the maximum depolarization magnitude relative to the average baseline reading prior to the first stimulation pulse. Halfwidth was defined as the duration of the depolarization phase of the evoked response at half its maximum amplitude value. Negative area was obtained by taking the magnitude of the integral of the evoked response curve over all segments with the same polarity as the depolarization phase. This integral spans a time window of 25 msec beginning one msec after the stimulation pulse. […]
# (§1) All response paramters were utilized to quantify candidate sample composition effects on the hippocampus. […]
# To compare the response of tissue slices to candidate sample compositions between different regions of the slice, the area under the curve for all 4 assays was calculated.
# To compare the effect of compounds in candidate sample compositions between different regions of a tissue slice, the area under the curve for all 4 assays was calculated. […]
# [2] = system: glutamate receptor-mediated evoked excitatory synaptic transmission, hippocampal slice dentate gyrus; assay: Paired-pulse evoked fEPSP in dentate gyrus (assay DG50), MED64
# Experimental: A 17-24 day old Sprague Dawley rat was decapitated after anesthesia with halothane (2-bromo-2-chloro-1,1,1-trifluoroethane; Sigma; B4388), and the whole brain was removed. The brain was immediately soaked for ˜2 min in ice-cold, oxygenated preparation buffer of the following composition (in mM): 124 NaCl, 26 NaHCO3, 10 glucose, 3 KCl, 1.25 NaH2PO4, 2 CaCl2, and 2 MgSO4. Appropriate portions of the brain were trimmed and placed on the ice-cold stage of a vibrating tissue slicer (Leica, Nussloch, Germany; VT-1000S). The stage was immediately filled with both oxygenated and frozen preparation buffers. The thickness of each tissue slice was 350 μm. Each slice was gently taken off the blade, and immediately soaked in the oxygenated artificial cerebrospinal fluid (ACSF) for at least 1 hr at room temperature. Then a slice was placed on the center of the MED probe. The slice was positioned to cover the 8×8 array. After positioning the slice, the MED probe was immediately placed in a box filled with 95% O2 and 5% CO2. […]
# (§2) Evoked field potentials at all 64 sites (minus stimulation sites) were recorded simultaneously with the multichannel recording system (Panasonic: MED64 system) at a 20 kHz sampling rate. […]
# (§3) All assays employ paired-pulse stimulation at various rat hippocampal sites to elicit evoked responses. The resulting field EPSP recordings were analyzed using Matlab software (The MathWorks, Inc.) by computing several response measures such as amplitude, halfwidth, and negative area, which apply to both the first and second evoked reponses. Amplitude was defined as the maximum depolarization magnitude relative to the average baseline reading prior to the first stimulation pulse. […]
# The polarity of the evoked responses for assay DG50 was reversed before analysis because of the inverted voltage values recorded by the DG50 electrode. Assays SC50, SC200, MF50, and CA3-1—50, however, were analyzed without such a reversal. […]
# as §1
# [3] = system: glutamate receptor-mediated evoked excitatory synaptic transmission, hippocampal slice CA1; assay: Paired-pulse evoked fEPSP in CA1, Schaffer collateral stimulation (assays SC50, SC200), MED64 multi-electrode array; design: key to SC 50 ms Amplitude fEPSP 1st, Mean / SC 50 ms Amplitude fEPSP 2nd, Mean / SC 200 ms Widths fEPSP 1st, Mean / SC 200 ms Widths fEPSP 2nd, Mean: fractional change vs. last 5 min of pre-wash-in control phase
# Experimental: A 17-24 day old Sprague Dawley rat was decapitated after anesthesia with halothane (2-bromo-2-chloro-1,1,1-trifluoroethane; Sigma; B4388), and the whole brain was removed. The brain was immediately soaked for ˜2 min in ice-cold, oxygenated preparation buffer of the following composition (in mM): 124 NaCl, 26 NaHCO3, 10 glucose, 3 KCl, 1.25 NaH2PO4, 2 CaCl2, and 2 MgSO4. Appropriate portions of the brain were trimmed and placed on the ice-cold stage of a vibrating tissue slicer (Leica, Nussloch, Germany; VT-1000S). The stage was immediately filled with both oxygenated and frozen preparation buffers. The thickness of each tissue slice was 350 μm. Each slice was gently taken off the blade, and immediately soaked in the oxygenated artificial cerebrospinal fluid (ACSF) for at least 1 hr at room temperature. Then a slice was placed on the center of the MED probe. The slice was positioned to cover the 8×8 array. After positioning the slice, the MED probe was immediately placed in a box filled with 95% O2 and 5% CO2.
# During recording, the slices were continuously perfused with a solution of the following composition: ACSF (in mM): 124 NaCl, 26 NaHCO3, 10 glucose, 3 KCl, 1.25 kH2PO4, 2 CaCl2, 1 MgSO4. All compounds were bath applied at known concentrations and were prepared daily from frozen aliquots. Compounds were purchased from Sigma. Ampakines (CX516, CX546, CX554) were made fresh everyday, and used at concentrations: CX516, 250 μM; CX546, 250 μM; and CX554, 30 μM.
# Baseline, application, and recovery time was usually at 10, 20, and 30 min respectively.
# During electrophysiological recording, the slices on the MED probe were placed in a small CO2 incubator (Asahi Lifescience; model 4020) at 32° C. The slices were placed on an interface, and a moisturized with a 95% O2 and 5% CO2 gas mixture.
# Evoked field potentials at all 64 sites (minus stimulation sites) were recorded simultaneously with the multichannel recording system (Panasonic: MED64 system) at a 20 kHz sampling rate. In the case of the evoked response, one of the planar microelectrodes out of the 64 available was used for the stimulating cathode. Bipolar constant-current pulses (10-50 μA; 0.1 ms) were produced by the data acquisition software via the isolator. The stimulating microelectrode was selected by the 64-switch box.
# All assays employ paired-pulse stimulation at various rat hippocampal sites to elicit evoked responses. The resulting field EPSP recordings were analyzed using Matlab software (The MathWorks, Inc.) by computing several response measures such as amplitude, halfwidth, and negative area, which apply to both the first and second evoked reponses. Amplitude was defined as the maximum depolarization magnitude relative to the average baseline reading prior to the first stimulation pulse. Halfwidth was defined as the duration of the depolarization phase of the evoked response at half its maximum amplitude value. Negative area was obtained by taking the magnitude of the integral of the evoked response curve over all segments with the same polarity as the depolarization phase. This integral spans a time window of 25 msec beginning one msec after the stimulation pulse.
# Amplitudes and halfwidths for both first and second elicited responses were computed for assays SC50, SC200, and CA3-1—50. For DG50 only first and second amplitudes were computed. Negative areas for first and second responses were computed for SC50, SC200, CA3-1—50, and MF50.
# All response paramters were utilized to quantify candidate sample composition effects on the hippocampus. For a given response parameter, the candidate sample composition effect was defined as the percent change of the average measure during the last five minutes of the wash-in phase with respect to the average measure of the last five minutes of the preceding, pre-wash-in control phase. […]
# [4] = system: glutamate receptor-mediated evoked excitatory synaptic transmission, hippocampal slice mossy fibers; assay: Paired-pulse evoked fEPSP, mossy fibers (assay MF50), MED64; details: 250 μM; 50 ms inter-pulse delay
# Experimental: A 17-24 day old Sprague Dawley rat was decapitated after anesthesia with halothane (2-bromo-2-chloro-1,1,1-trifluoroethane; Sigma; B4388), and the whole brain was removed. The brain was immediately soaked for ˜2 min in ice-cold, oxygenated preparation buffer of the following composition (in mM): 124 NaCl, 26 NaHCO3, 10 glucose, 3 KCl, 1.25 NaH2PO4, 2 CaCl2, and 2 MgSO4. Appropriate portions of the brain were trimmed and placed on the ice-cold stage of a vibrating tissue slicer (Leica, Nussloch, Germany; VT-1000S). The stage was immediately filled with both oxygenated and frozen preparation buffers. The thickness of each tissue slice was 350 μm. […]
# as §2, §3
# [5] = CX546 250 μM, individual slice files, normalized change over control
# [6] = CX546 250 μM, n = 5, normalized change over control
compound,measurement,setting,value
O=C(c1ccc2c(c1)OCCO2)N1CCCCC1 [CX546],degree to which ampakines enhance activation of interneurons (rank order),[1],CX554>CX546>CX516
same,responses recorded in dentate gyrus (amplitude),"[2]; 250 μM, 50 ms inter-pulse delay",decrease in the amplitude
same,second response (fEPSP) in DG,"[2]; area under the curve, representative slices, FIG. 9, CX546 250 μM, CX554 30 μM per Example 3",not noticeably altered
same,half-width of both responses in CA1,"[3]; 250 μM, 50 ms or 200 ms delay between stimulation pulses",increase in the half-width
same,change of the first response (amplitude),"[3]; 250 μM, 50 ms protocol",no change
same,decrease in the second response amplitude,"[3]; 250 μM, 50 ms protocol",9±3%
same,effect on amplitude of both responses,"[3]; 250 μM, 200 ms protocol",no effect
same,increase of the halfwidth of first and second fEPSP,"[3]; 250 μM, 200 ms protocol, summary of Table 2",14-15%
same,kind of modulation of the responses in CA1 (halfwidth vs amplitude),"[3]; CX516, CX546 250 μM, CX554 30 μM",selectively increases halfwidth but not the amplitude
same,SC 50 ms Amplitude fEPSP 1st,[3]; [5],0.063 and 0.087 and 0.012 and −0.022 and 0.025
same,SC 50 ms Amplitude fEPSP 2nd,[3]; [5],0.022 and −0.124 (2×) and −0.130 and −0.088
same,SC 50 ms Widths fEPSP 1st,[3]; [5],0.096 and 0.155 and 0.114 and 0.202 and 0.102
same,SC 50 ms Widths fEPSP 2nd,[3]; [5],0.067 and 0.026 and −0.025 and 0.065 and 0.031
same,SC 200 ms Amplitude fEPSP 1st,[3]; [5],0.064 and 0.083 and 0.028 and −0.007 and 0.021
same,SC 200 ms Amplitude fEPSP 2nd,[3]; [5],0.047 and 0.061 and 0.011 and −0.015 and 0.013
same,SC 200 ms Widths fEPSP 1st,[3]; [5],0.089 and 0.166 and 0.141 and 0.252 and 0.105
same,SC 200 ms Widths fEPSP 2nd,[3]; [5],0.102 and 0.207 and 0.180 and 0.189 and 0.132
same,"SC 50 ms Amplitude fEPSP 1st, Change over Control (%)","[3]; CX546 250 μM, n = 5",3.296%
same,"SC 50 ms Amplitude fEPSP 2nd, Change over Control (%)","[3]; CX546 250 μM, n = 5",−8.884%
same,"SC 50 ms Widths fEPSP 1st, Change over Control (%)","[3]; CX546 250 μM, n = 5",13.386%
same,"SC 50 ms Widths fEPSP 2nd, Change over Control (%)","[3]; CX546 250 μM, n = 5",3.276%
same,"SC 200 ms Amplitude fEPSP 1st, Change over Control (%)","[3]; CX546 250 μM, n = 5",3.764%
same,"SC 200 ms Amplitude fEPSP 2nd, Change over Control (%)","[3]; CX546 250 μM, n = 5",2.310%
same,"SC 200 ms Widths fEPSP 1st, Change over Control (%)","[3]; CX546 250 μM, n = 5",15.064%
same,"SC 200 ms Widths fEPSP 2nd, Change over Control (%)","[3]; CX546 250 μM, n = 5",16.206%
same,"SC 50 ms Amplitude fEPSP 1st, Mean",[3]; [6],0.033
same,"SC 50 ms Amplitude fEPSP 2nd, Mean",[3]; [6],−0.089
same,"SC 50 ms Widths fEPSP 1st, Mean",[3]; [6],0.134
same,"SC 50 ms Widths fEPSP 2nd, Mean",[3]; [6],0.033
same,"SC 200 ms Amplitude fEPSP 1st, Mean",[3]; [6],0.038
same,"SC 200 ms Amplitude fEPSP 2nd, Mean",[3]; [6],0.023
same,"SC 200 ms Widths fEPSP 1st, Mean",[3]; [6],0.151
same,"SC 200 ms Widths fEPSP 2nd, Mean",[3]; [6],0.162
same,area of the second response (fEPSP) in CA1,"[3]; area under the curve, representative slices, FIG. 9",decreased
same,mossy fibers' response (area),[4],increase
